Experimental data from ChEMBL document CHEMBL3638826, “Heterocyclic compounds as ERK inhibitors” (2015).

Biological target: Mitogen-activated protein kinase 1 (Mus musculus, UniProt P63085)
Experiment: IMAP Assay : Condition 1: Activated ERK2 activity was also determined in the IMAP assay format using the procedure outlined above. 1 μl of 25× compound was added to […] of kinase buffer containing 0.25 ng fully phosphorylated, active Mouse ERK2 protein. Following a 30 minute incubation, the reactions were initiated by addition of 10 μl of kinase buffer containing 1 μM ERK2 IMAP substrate peptide (0.9 μM unlabeled […]-CONH2 and 100 nM […](5-carboxyfluorescein)-CONH2) and 30 μM ATP. Reactions proceeded for 30 minutes before termination by addition of 60 μl IMAP detection beads in binding buffer. Plates were read as above after 30 minute binding equilibration. Active compounds were reconfirmed in an independent assay.

Mitogen-activated protein kinase 1, sequence (P63085 whole entry): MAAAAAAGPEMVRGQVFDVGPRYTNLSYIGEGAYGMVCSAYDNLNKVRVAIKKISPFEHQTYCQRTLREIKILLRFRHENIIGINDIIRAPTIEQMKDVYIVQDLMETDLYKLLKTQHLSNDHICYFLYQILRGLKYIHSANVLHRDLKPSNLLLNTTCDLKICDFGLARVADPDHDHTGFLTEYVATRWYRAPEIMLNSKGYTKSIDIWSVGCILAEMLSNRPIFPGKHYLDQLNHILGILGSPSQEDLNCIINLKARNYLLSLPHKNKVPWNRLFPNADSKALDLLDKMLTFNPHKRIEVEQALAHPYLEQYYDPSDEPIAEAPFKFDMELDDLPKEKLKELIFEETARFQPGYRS

- IC50: 0.035 µM
Compound: COc1cccc(F)c1CN1C[C@H](NC(=O)c2ccc3[nH]nc(-c4ccncc4)c3c2)CC[C@H]1C(=O)N1CCC(F)(F)CC1
